This note sets out measurements from US20110033883A1, “IMAGING DYES AND USE THEREOF” (priority 2007, published 2011).

Ru(bpy)2(pic) = [Ru(bpy)2(piCH2)]2+ complex, attached to the peptide through a hexyl spacer; Ahx = NCCCCCC(=O)O

The nature of series [1]: pH dependence of resonance Raman peak ratios. The format is physicochemical. To be noted: ratio of peaks at 1575 and 1317 cm^-1, 458 nm excitation. How it is done: (§1) Resonance Raman spectroscopy was performed on a Horiba Jobin Yvon HR800UV confocal microscope using an Argon ion Laser (458 nm or 514 nm) or a Helium-Neon (HeNe) laser (633 nm) as the exciting wavelength. Ten spectral acquisitions were accumulated and each acquisition was two seconds in length. Steady-state emission spectra were recorded on a Cary Eclipse Fluorescence spectrophotometer, and luminescence lifetimes were obtained using a Picoquant Fluotime 100 TCSPC system exciting at 470 nm and detecting at 600 nm using a narrow band pass dielectric filter. Quantum yields were measured using the comparative method described by Williams et al. In quenching studies, the luminophore/quencher concentrations were corrected for dilution.
To evaluate the pH dependence of the resonance Raman data peak ratios were calculated with Labspec5 software. A baseline was drawn along the base of the peak and the area was calculated. Regions for the peaks were 1700 to 1400 cm^−1. The ratio of the peaks for the different protonation states […] 5 replica measurements were recorded for each pH and averaged.
As the pH changes, the pic moiety can be protonated or deprotonated, while the bpy moieties should stay mainly unaffected by changes in pH. […]

Series [2] can be described thus: pH titration, ground-state pKa (UV/vis absorption, Henderson-Hasselbalch fit). The format is physicochemical. How it is done: ^1H NMR spectra were recorded on a Bruker Advance series 400 MHz NMR spectrometer. The NMR titration experiments were performed following a previously published protocol (Charbonnier and Penades). Mass spectra were acquired using a positive ion mode on a Bruker LC/MS Esquire. Electronic absorption spectra were measured on a Shimadzu 3500 UV-VIS/NIR spectrophotometer. Cyclic voltammetry was carried out using a CH Instruments CH602 electrochemical workstation. A conventional three-electrode cell was used, employing glassy carbon as working, Ag/AgCl as reference or Ag/AgNO3 in acetonitrile, and Pt wire as counter electrodes. Electrochemistry was conducted in water and acetonitrile respectively with 0.1 M phosphate buffer or tetrabutylammonium tetrafluoroborate (TBABF4) as supporting electrolyte under an N2 atmosphere. pH titrations were performed in the pH range 0.5-12. The pH was adjusted by adding aqueous solutions of NaOH or HClO4.
The pH was adjusted with H2SO4 (Sigma-Aldrich) and KOH (Sigma-Aldrich) and measured with a pH meter. UV/vis absorption spectra during the pH titration experiment were corrected for change in volume.
UV/vis absorption titration curves were fitted with a modified Henderson-Hasselbalch equation which was obtained using Beer-Lambert's law to express the concentration, FIG. 2(b) For fitting the fluorescence titration curve it was assumed that the average lifetime goes linear with the ratio of the two species in equilibrium at the certain pH.
At a shorter wavelength the ππ* transitions centred at the ligands are found: around 350 nm the ππ* transition at the pic ligand, and around 280 nm at the bipyridine ligands. […] The increasing absorption with increasing pH at 350 nm is plotted in FIG. 13B. Fitting this curve with a modified Henderson-Hasselbalch equation results in a pKa1 of 1.72±0.07 and pKa2 of 8.16±0.03. As expected the pH dependence of the other bands is rather minor.

Series [3] concerns bovine aortic epithelial (BAE) cells. Put plainly: Confocal luminescence imaging of bovine aortic epithelial (BAE) cells. The format is cell-based. The note with it: BAE cells in PBS buffer, 22° C., excitation 458 nm. How it is done:
Bovine aortic endothelium cells were supplied by Dr PM Cummins and cultured as described in Colgon et al.
Here it has been used to image emission spectrum (left) and a confocal image at a excitation wavelength of 458 nm (right) of bovine aortic epithelial (BAE) cells. The dyes were incubated at 22° C. with BAE cells in PBS buffer.

Series [4] deals with mouse SP2/0 myeloma cells. Nature of the series: Resonance Raman mapping of myeloma cells. The format is cell-based. To be noted: mouse SP2/0 myeloma cells, pH 7.4 PBS, cells washed. How it is done: as §1
For the fluorescence and fluorescence lifetime experiments 100 μl aliquots were used and incubated with the 3 μl of the Ru-octopeptide (1.2 mM), resulting in a final dye concentration of 3.5×10^−5 M. If only resonance Raman experiments were performed, the cells were incubated in the medium with dye for 15 minutes prior to the washing step.
The resonance Raman maps of the stained myeloma cells were analyzed using the modelling option implemented in the LabSpec software. A model with 4 components was creating, grouping together similar spectra in one component (background, where there is no dye/no cell, outer cell (membrane), cytoplasm and nucleus). […]

On to [Ru(bpy)2(PicH2)](PF6)2 [[Ru-LH]^2+], for which the “pKa from ratio of resonance Raman peaks” value in series [1] is listed as 8.5±0.2. In series [2], the “pKa of ionisable site at the imidazole (higher)” value is given as 8.5 and the “pKa of ionisable site at the imidazole (lower)” value was 1.6.

With “[Ru(bpy)2(pic-KVG)]^n+: [Ru(bpy)2(piCH2)]^2+ attached through a hexyl spacer to KVGFFKR-NH2 (SEQ ID No. 20) ({Ru(bpy)2(pic)-Ahx}-KVGFFKR-NH2; also: ruthenium complex, charge n+)”, the “localisation of the dye in the cells (luminescence image)” value in series [3] is reported as “concentrates in the membrane”.

Regarding “[Ru(dppz)2(PicH2)]ClO4 [[Ru(dppz)2PICH2]^2+]”, in series [4], the “entry into the cell (resonance Raman imaging)” value is “only interacted with the membrane but did not cross it”.
